# Source: US20090076050A1, “SYNERGISTIC TUMOR-KILLING EFFECT OF RADIATION AND BERBERINE COMBINED TREATMENT IN LUNG CANCER” (CHUNG SHAN MEDICAL U., priority 2007, published 2009)
# What was measured:
# [1] = blood biochemical analysis in LLC model mice; type: in vivo, C57BL/6 mice; conditions: all six groups incl. berberine 1.0, 2.0 mg/kg i.p. alone or with IR, end of experiment
# Procedure: (§1) The application of the additive cytotoxicity of IR combined with berberine in cancer treatment was further evidenced in an in vivo Lewis lung carcinoma (LLC) model in mice (Camphausen K, et al. Cancer Res 2001; 61:2207-11). Male C57BL/6 mice aged 4-6 weeks (National Taiwan University Animal Center, Taiwan) were used. To form a tumor xenograft, Lewis lung cells (2×10^6) were injected s.c. into the right hind limb. Animals were randomized into six groups: control, irradiation (IR) alone, berberine (1.0, 2.0 mg/kg) alone, and IR combined with berberine (1.0, 2.0 mg/kg). For tumor irradiation, mice were immobilized in a customized harness that exposed the right hind leg while shielding the remainder of the body by 3.5 cm of lead. Mice were exposed to a single dose of 8 Gy. […] To obtain tumor growth curves, three orthogonal tumor diameters were measured every 4-day intervals with a vernier caliper, and the mean values were calculated. […] Primary tumor growth delay was measured by calipers in two dimensions, and the volumes were calculated according to the formula: tumor volume=(width) 2×length×0.52. […] The tumor volume at the primary site of each group was measured before treatment, and the average tumor volume was designated as T0. When the animals were sacrificed at the end of experiment, the xenografts were removed, and the tumor volume was determined and presented as fold of T0. […]
# bcl-2 = experiment: immunohistochemistry of bcl-2 in xenograft; type: in vivo, C57BL/6 mice
# Procedure: as §1
# LLC cells = experiment: MTT cell viability, berberine combined with IR, LLC cells; type: cell-based; conditions: LLC cells (data not shown)
# Excerpt: The data were depicted in FIG. 1C after normalization.
# A549 cells = experiment: clonogenic survival assay (linear-quadratic model); type: cell-based, human
# Procedure: Cells were cultured in phenol-red-free medium and irradiated with a […] (Varian, 21-EX). The radiation was delivered as a single dose ranging from 2 to 8 Gy in an appropriate field size at a dose rate of 400 cGy/min. A 3-cm polystyrene block was used under the petri dishes during each irradiation to allow homogeneous backscattering radiation. Control cells were removed from the incubator and placed for the same period of time under the IR source but without radiation treatment. In the combined treatment mortality tests, berberine was added 2 h prior to irradiation.
# The enhancing effect of berberine on radio-sensitivity in NSCLC was performed by treating A549 with various concentrations of berberine alone or combined with different dose of IR at 37° C. for 24 h or 48 h followed by MTT assay for cell viability analysis. Thereafter, the medium was changed and incubated with 100 μl MTT (Sigma St Louis, Mo.)/well for 4 h, which was solubilized in isopropanol, and measured spectrophotometrically at 563 nm. […] To further ascertain the effect of berberine on the lethality of IR, clonogenic survival assay was performed to examine long term survival. IR or berberine-treated cells (1000 cells) were plated onto 10 cm tissue culture dish in five replicates. After 14 days, colonies were fixed with methanol, stained with 0.25% crystal violet, and counted if they were consisted of more than 50 cells. The fraction of colonies survived from the irradiation was normalized to that of the corresponding control. The curves were fitted to the data using linear-quadratic model. The data were depicted in FIG. 1C after normalization.
# Statistical significances were analyzed by student t-test or one-way analysis of variance (ANOVA) with post-hock Dunnett's test. P-value≦0.05 was considered statistically significant (Sigma-Stat 2.0, San Rafael, Calif., USA). Survival fraction curve was analyzed by KaleigaGraph 4.0 then fitted to the data using linear-quadratic model. Combination index was analyzed by CalcuSyn.
smiles,measurement,setting,value
"COc1ccc2cc3[n+](cc2c1OC)CCc1cc2c(cc1-3)OCO2 [berberine, Berberine]","serum levels of AST, ALT, urea nitrogen, creatinine, complete blood cell counts, triglyceride and total cholesterol",[1],no difference among groups
same,bcl-2 protein expression in xenograft,bcl-2; berberine alone groups,reduced
same,bcl-2 protein expression in xenograft,bcl-2; co-treatment groups (berberine + IR),reduced
same,dose and time dependent synergic-killing effect,LLC cells,also observed
same,decrease in the D0 value,A549 cells; 10 μM berberine vs IR alone,4.2 fold
same,D0 (dose of radiation producing a 37% survival rate),A549 cells; IR + 2.5 μM berberine,4.01 Gy
same,SF2,A549 cells; IR + 2.5 μM berberine,0.3184
same,D0 (dose of radiation producing a 37% survival rate),A549 cells; IR + 5.0 μM berberine,2.70 Gy
same,SF2,A549 cells; IR + 5.0 μM berberine,0.2152
same,D0 (dose of radiation producing a 37% survival rate),A549 cells; IR + 10 μM berberine,1.24 Gy
same,SF2,A549 cells; IR + 10 μM berberine,0.0991
